Data published in PubChem BioAssay AID248 (DTP/NCI, 2004).
Toxic doses and inconclusive results are not listed. Cut-off read from the data, not from the text of the source: active = T/C of 150% or more; inactive = T/C below 125%.

Test system: L1210 leukemia ip in BDF1 mice, survival T/C
Assay: NCI In Vivo Anticancer Drug Screen. Data for tumor model L1210 Leukemia (intraperitoneal) in B6D2F1 (BDF1) mice
Conditions: endpoint: mean survival time, higher = longer survival
Procedure, shortened: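 Read-out is survival time, reported as the treated-group measurement over the vehicle-control measurement.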

[1] = dose: 100.0 mg/kg/injection, schedule: Q04DX002 (ip), vehicle: saline
[2] = dose: 200.0 mg/kg/injection, schedule: Q04DX002 (ip), vehicle: saline
[3] = dose: 400.0 mg/kg/injection, schedule: Q04DX002 (ip), vehicle: saline
[4] = dose: 100.0 mg/kg/injection, schedule: Q04DX003 (ip), vehicle: saline with Tween-80
[5] = dose: 200.0 mg/kg/injection, schedule: Q04DX003 (ip), vehicle: saline with Tween-80
[6] = dose: 400.0 mg/kg/injection, schedule: Q04DX003 (ip), vehicle: saline with Tween-80
[7] = dose: 100.0 mg/kg/injection, schedule: Q01DX009 (ip), vehicle: saline
[8] = dose: 200.0 mg/kg/injection, schedule: Q01DX009 (ip), vehicle: saline
[9] = dose: 400.0 mg/kg/injection, schedule: Q01DX009 (ip), vehicle: saline
[10] = dose: 75.0 mg/kg/injection, schedule: Q01DX001 (ip), vehicle: saline
[11] = dose: 150.0 mg/kg/injection, schedule: Q01DX001 (ip), vehicle: saline

Measured: T/C

CCCC/C(CC)=N\N=C(/CC)CCCC
inactive: dose: 50.0 mg/kg/injection, schedule: Q04DX002 (ip), vehicle: saline 91 % of control | [1] 102 % of control | [2] 88 % of control | [3] 96 % of control

CCCc1nc2c(=O)[nH]cnc2o1
inactive: [4] 89 % of control | [5] 95 % of control | [6] 101 % of control

COc1ccccc1CN1CCCOP1(=O)Nc1ccccc1 (centres undefined)
inactive: dose: 50.0 mg/kg/injection, schedule: Q01DX001 (ip), vehicle: carboxymethylcellulose (CMC) 91 % of control | dose: 100.0 mg/kg/injection, schedule: Q01DX001 (ip), vehicle: carboxymethylcellulose (CMC) 91 % of control | dose: 200.0 mg/kg/injection, schedule: Q01DX001 (ip), vehicle: carboxymethylcellulose (CMC) 93 % of control | dose: 400.0 mg/kg/injection, schedule: Q01DX001 (ip), vehicle: carboxymethylcellulose (CMC) 93 % of control

C/C(C(=O)O)=C(\C)C(=O)O
inactive: [7] 104 % of control | [1] 108 % of control | [8] 97 % of control | [2] 104 % of control | [9] 108 % of control | [3] 101 % of control

CCCC(C)CN (centres undefined)
inactive: dose: 50.0 mg/kg/injection, schedule: Q01DX009 (ip), vehicle: saline with Tween-80 100 % of control | dose: 100.0 mg/kg/injection, schedule: Q01DX009 (ip), vehicle: saline with Tween-80 104 % of control | [4] 100 % of control | [5] 98 % of control

O=C1CC(=O)C(Br)=C1Br
inactive: dose: 1.5 mg/kg/injection, schedule: Q04DX003 (ip), vehicle: saline with Tween-80 101 % of control | dose: 3.0 mg/kg/injection, schedule: Q04DX003 (ip), vehicle: saline with Tween-80 105 % of control

O=C1c2ccccc2C(=O)N1Cc1ccc([N+](=O)[O-])cc1
inactive: dose: 100.0 mg/kg/injection, schedule: Q01DX001 (ip), vehicle: other 96 % of control | dose: 100.0 mg/kg/injection, schedule: Q04DX003 (ip), vehicle: Klucel (hydroxypropylcellulose) (HPC) 103 % of control | dose: 200.0 mg/kg/injection, schedule: Q01DX001 (ip), vehicle: other 87 % of control | dose: 200.0 mg/kg/injection, schedule: Q04DX003 (ip), vehicle: Klucel (hydroxypropylcellulose) (HPC) 101 % of control | dose: 400.0 mg/kg/injection, schedule: Q01DX001 (ip), vehicle: other 95 % of control | dose: 400.0 mg/kg/injection, schedule: Q04DX003 (ip), vehicle: Klucel (hydroxypropylcellulose) (HPC) 97 % of control

CC(=O)Oc1ccc(Cl)cc1/C=C\C=O
inactive: dose: 100.0 mg/kg/injection, schedule: Q01DX001 (ip), vehicle: saline 100 % of control | dose: 200.0 mg/kg/injection, schedule: Q01DX001 (ip), vehicle: saline 101 % of control

CCCN1CCCN(CCC)C1=O
inactive: dose: 50.0 mg/kg/injection, schedule: Q04DX002 (ip), vehicle: Klucel (hydroxypropylcellulose) (HPC) 102 % of control | dose: 100.0 mg/kg/injection, schedule: Q04DX002 (ip), vehicle: Klucel (hydroxypropylcellulose) (HPC) 102 % of control | dose: 200.0 mg/kg/injection, schedule: Q04DX002 (ip), vehicle: Klucel (hydroxypropylcellulose) (HPC) 93 % of control

C[C@]12CCC(=O)C=C1[C@@H](F)C[C@@H]1[C@@H]2[C@@H](O)C[C@@]2(C)[C@H]1CC[C@]2(O)C(=O)CO
inactive: dose: 25.0 mg/kg/injection, schedule: Q01DX015 (ip), vehicle: carboxymethylcellulose (CMC) 106 % of control | dose: 50.0 mg/kg/injection, schedule: Q01DX015 (ip), vehicle: carboxymethylcellulose (CMC) 96 % of control | dose: 100.0 mg/kg/injection, schedule: Q01DX001 (sc), vehicle: steriod suspending solution 117 % of control | dose: 100.0 mg/kg/injection, schedule: Q01DX015 (ip), vehicle: carboxymethylcellulose (CMC) 110 % of control | dose: 200.0 mg/kg/injection, schedule: Q01DX001 (sc), vehicle: steriod suspending solution 89 % of control | dose: 200.0 mg/kg/injection, schedule: Q01DX015 (ip), vehicle: carboxymethylcellulose (CMC) 98 % of control | dose: 400.0 mg/kg/injection, schedule: Q01DX001 (sc), vehicle: steriod suspending solution 100 % of control | dose: 400.0 mg/kg/injection, schedule: Q01DX015 (ip), vehicle: carboxymethylcellulose (CMC) 86 % of control | dose: 800.0 mg/kg/injection, schedule: Q01DX001 (sc), vehicle: steriod suspending solution 105 % of control | dose: 800.0 mg/kg/injection, schedule: Q01DX015 (ip), vehicle: saline 102 % of control

O=C1COC(=O)c2ccccc2O1
inactive: [4] 101 % of control | [5] 97 % of control | [6] 93 % of control

CCOCCCCO
inactive: [7] 96 % of control | [8] 92 % of control | [9] 94 % of control

Nc1nc2c(ncn2-c2cccc(NC(=O)Nc3cc(S(=O)(=O)F)ccc3Cl)c2)c(=O)[nH]1
inactive: dose: 12.5 mg/kg/injection, schedule: Q01DX001 (ip), vehicle: Klucel (hydroxypropylcellulose) (HPC) 87 % of control | dose: 25.0 mg/kg/injection, schedule: Q01DX001 (ip), vehicle: Klucel (hydroxypropylcellulose) (HPC) 96 % of control | dose: 50.0 mg/kg/injection, schedule: Q01DX001 (ip), vehicle: Klucel (hydroxypropylcellulose) (HPC) 89 % of control

Cc1noc(C)c1[N+](=O)[O-]
inactive: dose: 75.0 mg/kg/injection, schedule: Q01DX009 (ip), vehicle: saline 97 % of control | dose: 150.0 mg/kg/injection, schedule: Q01DX009 (ip), vehicle: saline 94 % of control | dose: 300.0 mg/kg/injection, schedule: Q01DX009 (ip), vehicle: saline 101 % of control

CC(C)C[CH2][Pb]([CH2]CC(C)C)([CH2]CC(C)C)[O]C(=O)C(C)C
inactive: dose: 1.56 mg/kg/injection, schedule: Q01DX009 (ip), vehicle: Klucel (hydroxypropylcellulose) (HPC) 97 % of control | dose: 3.12 mg/kg/injection, schedule: Q01DX009 (ip), vehicle: Klucel (hydroxypropylcellulose) (HPC) 93 % of control | dose: 3.12 mg/kg/injection, schedule: Q04DX002 (ip), vehicle: Klucel (hydroxypropylcellulose) (HPC) 111 % of control | dose: 6.25 mg/kg/injection, schedule: Q04DX002 (ip), vehicle: Klucel (hydroxypropylcellulose) (HPC) 115 % of control

CC(=O)C(C#N)c1c(C)cc(C)cc1C (centres undefined)
inactive: dose: 37.5 mg/kg/injection, schedule: Q04DX003 (ip), vehicle: saline 97 % of control | [10] 97 % of control | dose: 75.0 mg/kg/injection, schedule: Q04DX003 (ip), vehicle: saline 92 % of control | [11] 105 % of control | dose: 150.0 mg/kg/injection, schedule: Q04DX003 (ip), vehicle: saline 96 % of control

O=C1c2cccc3c([N+](=O)[O-])ccc(c23)C(=O)N1NCCO
inactive: dose: 100.0 mg/kg/injection, schedule: Q04DX003 (ip), vehicle: carboxymethylcellulose (CMC) 102 % of control | dose: 200.0 mg/kg/injection, schedule: Q04DX003 (ip), vehicle: carboxymethylcellulose (CMC) 100 % of control

CCc1ccc(C(O)C(=O)O)cc1 (centres undefined)
inactive: dose: 75.0 mg/kg/injection, schedule: Q01DX001 (ip), vehicle: acetone 90 % of control | dose: 150.0 mg/kg/injection, schedule: Q01DX001 (ip), vehicle: acetone 94 % of control

CN(C)C(=O)N/C=C/NC(=O)N(C)C
inactive: dose: 12.5 mg/kg/injection, schedule: Q04DX002 (ip), vehicle: saline with Tween-80 92 % of control | dose: 25.0 mg/kg/injection, schedule: Q04DX002 (ip), vehicle: saline with Tween-80 89 % of control | dose: 50.0 mg/kg/injection, schedule: Q04DX002 (ip), vehicle: saline with Tween-80 106 % of control

CC(=O)NC1=C(Oc2ccc(C)cc2)C(=O)c2ccccc2C1=O
inactive: [10] 98 % of control | [11] 96 % of control
